According to patent US20200216439A1, “HETERO-1,5,6,7-TETRAHYDRO-4H-INDOL-4-ONES” (BAYER PHARMA AKTIENGESELLSCHAFT, priority 2015, published 2020):

These compounds were tested against T1, catalytic domain of human Bub1 (amino acids 704-1085) (Homo sapiens, UniProt O43683) (assay: Bub1 kinase assay (TR-FRET)). Settings: TR-FRET; ATP 10 μM, peptide substrate 1 μM; 60 min at 22° C.; average or median if tested more than once; read-out: Inhibition of Bub1 kinase IC50.
T1 construct: catalytic domain of human Bub1 (amino acids 704-1085); His6 (N); made in house; host or cells: Hi5 insect cells
T1 sequence (O43683 704-1085): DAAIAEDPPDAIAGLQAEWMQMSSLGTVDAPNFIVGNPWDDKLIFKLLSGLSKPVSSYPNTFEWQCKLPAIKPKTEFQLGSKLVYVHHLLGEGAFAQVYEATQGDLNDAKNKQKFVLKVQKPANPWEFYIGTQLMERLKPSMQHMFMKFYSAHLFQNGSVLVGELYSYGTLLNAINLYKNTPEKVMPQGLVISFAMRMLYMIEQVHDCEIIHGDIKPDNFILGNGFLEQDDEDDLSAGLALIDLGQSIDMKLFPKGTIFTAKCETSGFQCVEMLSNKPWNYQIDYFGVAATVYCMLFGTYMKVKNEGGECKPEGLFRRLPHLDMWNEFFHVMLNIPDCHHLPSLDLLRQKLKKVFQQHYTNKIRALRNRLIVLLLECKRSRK
Assay type: biochemical
Summary of the method: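 Human Bub1 catalytic domain (704-1085, His6-tagged, Hi5-expressed, ~200 ng/mL) preincubated with compound 15 min at 22 °C, then reacted 60 min at 22 °C with 10 μM ATP and 1 μM biotinylated peptide substrate, pH 7.5. EDTA stop; TR-FRET 665/620 ratio; IC50 from 4-parameter fit, 11 concentrations in duplicate.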

O=C1COCc2[nH]c(-c3ccncc3C(F)(F)F)c(Nc3ccccc3)c21 [Example 300, 3-(Phenylamino)-2-[3-(trifluoromethyl)pyridin-4-yl]-1,7-dihydropyrano[3,4-b]pyrrol-4(5H)-one] and O=C1CSCc2[nH]c(-c3ccncc3C(F)(F)F)c(Nc3ccccc3)c21 [Example 299, 3-(Phenylamino)-2-[3-(trifluoromethyl)pyridin-4-yl]-1,7-dihydrothiopyrano[3,4-b]pyrrol-4(5H)-one] are within 1.5-fold of each other in IC50: 8210 nM for the first, 7360 nM for the second.

First: CC(=O)Nc1cc(-c2[nH]c3c(c2Nc2ccccc2)C(=O)CN(C(=O)CCC(C)(C)C)C3)ccn1 [Example 179, N-{4-[3-Anilino-6-(4,4-dimethylpentanoyl)-4-oxo-4,5,6,7-tetrahydro-1H-pyrrolo[2,3-c]pyridin-2-yl]pyridin-2-yl}acetamide]
Second: CC(=O)Nc1cc(-c2[nH]c3c(c2Nc2ccccc2)C(=O)CN(C(=O)CCF)C3)ccn1 [Example 211, N-4-[6-(3-Fluoropropanoyl)-4-oxo-3-(phenylamino)-4,5,6,7-tetrahydro-1H-pyrrolo[2,3-c]pyridin-2-yl]pyridin-2-ylacetamide]
The IC50 of the first is 16-fold higher: 63 nM for the first, 4 nM for the second.

First: CC(C)(C)OC(=O)N1CC(=O)c2c([nH]c(-c3ccncc3C(F)(F)F)c2Nc2ccccc2)C1 [Example 298, tert-Butyl 4-oxo-3-(phenylamino)-2-[3-(trifluoromethyl)pyridin-4-yl]-1,4,5,7-tetrahydro-6H-pyrrolo[2,3-c]pyridine-6-carboxylate]
Second: COCCOc1cnccc1-c1[nH]c2c(c1Nc1ccccc1)C(=O)CN(C(=O)OC)C2 [Example 248, Methyl 2-[3-(2-methoxyethoxy)pyridin-4-yl]-4-oxo-3-(phenylamino)-1,4,5,7-tetrahydro-6H-pyrrolo[2,3-c]pyridine-6-carboxylate]
The IC50 of the first is 180-fold higher: 896 nM for the first, 5 nM for the second. The second is the more potent here.

CCOC(=O)N1CC(=O)c2c([nH]c(-c3ccnc(NC(=O)[C@@H]4C[C@@H]4F)c3)c2Nc2ccccc2)C1 [Example 215, Ethyl 2-[2-([(1S,2S)-2-fluorocyclopropyl]carbonylamino)pyridin-4-yl]-4-oxo-3-(phenylamino)-1,4,5,7-tetrahydro-6H-pyrrolo[2,3-c]pyridine-6-carboxylate] and COC(=O)N1CC(=O)c2c([nH]c(-c3ccnc(NC(=O)[C@@H]4C[C@@H]4F)c3)c2Nc2ccccc2)C1 [Example 205, Methyl 2-[2-([(1S,2S)-2-fluorocyclopropyl]carbonylamino)pyridin-4-yl]-4-oxo-3-(phenylamino)-1,4,5,7-tetrahydro-6H-pyrrolo[2,3-c]pyridine-6-carboxylate] are within 1.5-fold of each other in IC50: 4 nM for the first, 3 nM for the second.

O=C1CNCc2[nH]c(-c3ccncc3F)c(Nc3ccccc3)c21 [Example 101, 2-(3-Fluoropyridin-4-yl)-3-(phenylamino)-1,5,6,7-tetrahydro-4H-pyrrolo[2,3-c]pyridin-4-one] and COc1cc(C(=O)Nc2cc(-c3[nH]c4c(c3Nc3ccccc3)C(=O)CNC4)ccn2)ccc1F [Example 257] are within 1.5-fold of each other in IC50: 43 nM for the first, 35 nM for the second.

Compared with CC(C)S(=O)(=O)N1CC(=O)c2c([nH]c(-c3ccncc3)c2Nc2ccccc2)C1 [Example 67, 3-(phenylamino)-6-(propan-2-ylsulfonyl)-2-(pyridin-4-yl)-1,5,6,7-tetrahydro-4H-pyrrolo[2,3-c]pyridin-4-one], CCC(=O)N1CC(=O)c2c([nH]c(-c3ccncc3)c2Nc2ccccc2)C1 [Example 8, 3-(phenylamino)-6-propanoyl-2-(pyridin-4-yl)-1,5,6,7-tetrahydro-4H-pyrrolo[2,3-c]pyridin-4-one] is 1.5-fold lower in IC50: 6 nM for the first, 4 nM for the second.

COCCNC(=O)N1CC(=O)c2c([nH]c(-c3ccncc3)c2Nc2ccccc2)C1 [Example 86, N-(2-Methoxyethyl)-4-oxo-3-(phenylamino)-2-(pyridin-4-yl)-1,4,5,7-tetrahydro-6H-pyrrolo[2,3-c]pyridine-6-carboxamide] and CC(C)(C)CC(=O)N1CC(=O)c2c([nH]c(-c3ccncc3)c2Nc2ccccc2)C1 [Example 58, 6-(3,3-Dimethylbutanoyl)-3-(phenylamino)-2-(pyridin-4-yl)-1,5,6,7-tetrahydro-4H-pyrrolo[2,3-c]pyridin-4-one] are within 1.5-fold of each other in IC50: 11 nM for the first, 8 nM for the second.

First: CC(=O)Nc1cc(-c2[nH]c3c(c2Nc2ccccc2)C(=O)CN(S(=O)(=O)C2CC2)C3)ccn1 [Example 172]
Second: CC(=O)Nc1cc(-c2[nH]c3c(c2Nc2ccccc2)C(=O)CN(C(=O)c2cnsc2)C3)ccn1 [Example 193, N-{4-[3-Anilino-4-oxo-6-(1,2-thiazol-4-ylcarbonyl)-4,5,6,7-tetrahydro-1H-pyrrolo[2,3-c]pyridin-2-yl]pyridin-2-yl}acetamide]
The IC50 of the first is 3.8-fold lower: 5 nM for the first, 19 nM for the second. The first is the more potent here.

Work on O=C1CN(C(=O)C2CC2)Cc2[nH]c(-c3ccnc(NC(=O)[C@@H]4C[C@@H]4F)c3)c(Nc3ccccc3)c21 [Example 212, (1S,2S)—N-4-[6-(Cyclopropylcarbonyl)-4-oxo-3-(phenylamino)-4,5,6,7-tetrahydro-1H-pyrrolo[2,3-c]pyridin-2-yl]pyridin-2-yl-2-fluorocyclopropanecarboxamide] yielded an IC50 of 3 nM.
